According to patent publication US20230241071A1, “COMBINATION TREATMENT OF LIVER DISORDERS” (Terns Pharmaceuticals, Inc., priority 2021, published 2023):

Legend:
[1] = Pharmacokinetic evaluation in SD rats; assay type: in vivo, rat; details: 2.0 mg/kg intragastric; for half-life: male, rat, plasma, po
Experimental: Drug Preparation: a certain amount of the drug was taken and added into a 2% Klucel LF+0.1% Tween 80 aqueous solution, to prepare a clear solution or a uniform suspension.
Dosage: SD rats were fasted overnight and given the drug by intragastric infusion at an administrated dose of 2 mg/kg and an administrated volume of 10 mL/kg each.
Operation: rats were dosed by intragastric infusion with the compounds. […] The heparinized sample tubes were then stored at −20° C., and the rats were allowed to eat food 2 h after the dosage.
Determination of contents of the compounds to be tested in the plasma of rats after intragastric infusion of the drugs at different concentrations: the plasma samples were thawed at room temperature, 50 μL each was taken and added into 130 μL of an internal standard working solution (1000 ng/mL, acetonitrile, tolbutamide), and the mixture was whirled for about 1 min and then centrifugated at 4° C. and 13000 rpm for 10 min. 50 μL of the supernatant was taken and mixed with 100 μL of 50% acetonitrile water, and then introduced for LC/MS/MS analysis.

THR-β = biological target: T1, THR-β (Homo sapiens, UniProt P10828); assay: Binding activity to the thyroxine receptor beta; details: for THR-α/-β selectivity: ratio of binding IC50; for IC50: read-out: IC50 THR-β binding force
T1 sequence (P10828 1-461): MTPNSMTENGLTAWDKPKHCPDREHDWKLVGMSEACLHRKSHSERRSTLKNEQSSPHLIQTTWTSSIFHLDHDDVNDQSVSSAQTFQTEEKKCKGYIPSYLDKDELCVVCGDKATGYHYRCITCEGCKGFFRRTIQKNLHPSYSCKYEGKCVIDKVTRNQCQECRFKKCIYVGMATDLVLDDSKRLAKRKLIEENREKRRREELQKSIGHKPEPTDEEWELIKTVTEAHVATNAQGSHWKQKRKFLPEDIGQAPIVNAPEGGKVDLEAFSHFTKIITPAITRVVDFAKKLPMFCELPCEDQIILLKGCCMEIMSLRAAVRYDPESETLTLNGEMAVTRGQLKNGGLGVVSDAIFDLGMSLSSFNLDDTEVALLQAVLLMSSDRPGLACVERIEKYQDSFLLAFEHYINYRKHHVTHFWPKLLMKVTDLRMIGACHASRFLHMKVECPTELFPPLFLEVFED

SMILES | Curve area [1] | Peak blood drug concentration [1] | Time to peak [1] | half-life [1] | THR-α/-β selectivity (THR-β) | IC50 (THR-β)
CC(C)c1cc(Oc2c(Cl)cc(-n3nc(C#N)c(=O)[nH]c3=O)cc2Cl)n[nH]c1=O [Reference compound, 2-[3,5-Dichloro-4-(5-isopropyl-6-oxo-1,6-dihydropyridazin-3-yloxy)phenyl]-3,5-dioxo-2,3,4,5-tetrahydro[1,2,4]triazine-6-carbonitrile, reference compound] | 12854 ± 961 ng·h/mL | 1163 ± 97.1 ng/mL | 5.3 ± 1.15 h | 212 ± 25.2 min | – | –
CC1(C)CCc2c(Oc3c(Cl)cc(-n4cc(C#N)c(=O)[nH]c4=O)cc3Cl)n[nH]c(=O)c21 [Compound 6] | 9242 ± 1245 ng·h/mL | – | 5.33 ± 1.15 h | 308 ± 49.8 min | – | –
N#Cc1nn(-c2cc(Cl)c(Oc3n[nH]c(=O)c4c(Cl)cccc34)c(Cl)c2)c(=O)[nH]c1=O [Compound 7] | – | – | – | – | >6.80 factor | 1470 nM
N#Cc1nn(-c2cc(Cl)c(Oc3n[nH]c(=O)c4c3CCCC4)c(Cl)c2)c(=O)[nH]c1=O [Compound 3] | – | – | – | – | >8.1 factor | 1230 nM
O=c1cnn(-c2cc(Cl)c(Oc3n[nH]c(=O)c4ccccc34)c(Cl)c2)c(=O)[nH]1 [Compound 11] | – | – | – | – | – | 262 nM
